From patent US20140323504A1, “Pyrazolo[4,3-c]Pyridine Derivatives As Kinase Inhibitors” (Cellzome Limited, priority 2011, published 2014)
Read-outs that look alike come from different tables or passages of the source.

Assays:
ITK = molecular target: T1, ITK (Homo sapiens, UniProt Q08881); test: Kinobeads assay with quantitative mass spectrometry, ITK; type: binding; conditions: Jurkat/Ramos lysate, read-out: ITK inhibition value (IC50)
T1 construct: purchased ProQinase GmbH, Freiburg, Germany
T1 sequence (Q08881 1-620): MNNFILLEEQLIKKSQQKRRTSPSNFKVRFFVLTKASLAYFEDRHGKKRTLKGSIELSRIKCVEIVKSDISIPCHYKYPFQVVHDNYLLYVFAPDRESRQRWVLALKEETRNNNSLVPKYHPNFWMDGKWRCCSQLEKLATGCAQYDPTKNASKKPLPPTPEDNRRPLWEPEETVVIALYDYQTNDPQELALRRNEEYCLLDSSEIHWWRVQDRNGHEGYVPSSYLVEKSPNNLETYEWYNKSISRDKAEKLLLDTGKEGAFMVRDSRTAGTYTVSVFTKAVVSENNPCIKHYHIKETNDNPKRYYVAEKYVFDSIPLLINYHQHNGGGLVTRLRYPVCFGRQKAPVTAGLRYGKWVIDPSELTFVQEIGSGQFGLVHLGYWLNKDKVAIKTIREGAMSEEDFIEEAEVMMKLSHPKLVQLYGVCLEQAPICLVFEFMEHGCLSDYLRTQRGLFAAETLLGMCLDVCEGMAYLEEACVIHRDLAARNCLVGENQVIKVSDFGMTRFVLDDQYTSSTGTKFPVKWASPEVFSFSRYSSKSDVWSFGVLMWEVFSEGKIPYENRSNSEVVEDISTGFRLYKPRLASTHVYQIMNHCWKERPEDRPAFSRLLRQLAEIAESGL
Protocol: (§1) Selected compounds of the present invention as described in the previous examples were tested in a Kinobeads™ assay as described (WO-A 2006/134056; Bantscheff et al., 2007. Nature Bioteclmol. 25, 1035-1044).
(§2) Compounds were incubated with cell lysate aliquots (1:1 mix of Jurkat and Ramos cell lysates) for 45 minutes at 4° C. and allowed to bind to the proteins in the lysate sample. Then the Kinobeads™ affinity matrix was added to capture proteins that were not interacting with the previously added compound. After this two hour incubation step at 4° C. beads were separated from the lysate and bead bound proteins were eluted in SDS sample buffer and subsequently separated by SDS-Polyacrylamide gel electrophoresis. The gel was stained with colloidal Coomassie and stained areas of each gel lane were cut out and subjected to in-gel proteolytic digestion with trypsin. Peptides originating from the different gel areas were labeled with isobaric tagging reagents (TMT reagents, Thermofisher) as shown in Table 7. The TMT reagents are a set of multiplexed, amine-specific, stable isotope reagents that can label peptides in up to six different biological samples enabling simultaneous identification and quantitation of peptides. The combined samples were fractionated using reversed-phase chromatography at pH 11 and fractions were subsequently analyzed with a nano-flow liquid chromatography system coupled online to a tandem mass spectrometer (LC-MSMS) experiment followed by reporter ion quantification in the MSMS spectra (Ross et al., 2004. Mol. Cell. Proteomics 3(12):1154-1169; Dayon et al., 2008. Anal. Chem. 80(8):2921-2931; Thompson et al., 2003. Anal. Chem. 75(8):1895-1904). Further experimental protocols can be found in WO2006/134056 and previous publications (Bantscheff et al., 2007. Nat. Biotechnol. 25, 1035-1044; Bantscheff et al., 2011. Nat. Biotechnol. 29(3):255-265).

BLK = molecular target: T2, BLK (Homo sapiens, UniProt P51451); test: Kinobeads assay with quantitative mass spectrometry, BLK; type: binding; conditions: Jurkat/Ramos lysate, read-out: BLK inhibition value (IC50)
T2 construct: endogenous in cells; host or cells: 1:1 mix of Jurkat and Ramos cell lysates
T2 sequence (P51451 whole entry): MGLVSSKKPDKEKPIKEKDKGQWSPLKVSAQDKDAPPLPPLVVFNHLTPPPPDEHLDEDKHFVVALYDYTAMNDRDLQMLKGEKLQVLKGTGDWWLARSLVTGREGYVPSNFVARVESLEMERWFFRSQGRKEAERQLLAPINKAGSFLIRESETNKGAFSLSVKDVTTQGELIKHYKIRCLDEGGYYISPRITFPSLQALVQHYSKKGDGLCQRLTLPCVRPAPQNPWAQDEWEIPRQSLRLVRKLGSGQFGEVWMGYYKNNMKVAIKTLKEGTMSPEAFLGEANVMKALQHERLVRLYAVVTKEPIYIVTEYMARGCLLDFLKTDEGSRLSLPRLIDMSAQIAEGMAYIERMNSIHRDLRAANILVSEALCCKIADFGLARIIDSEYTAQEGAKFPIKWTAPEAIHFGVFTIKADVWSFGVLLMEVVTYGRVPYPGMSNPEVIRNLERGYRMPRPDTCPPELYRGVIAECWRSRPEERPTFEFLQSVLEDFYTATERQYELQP
Protocol: as §1, §2

[1] = test system: STAT5 phosphorylation in IL-2 stimulated YT cells; test: Cell assay with washout of compounds (pSTAT5, YT cells, MSD); type: cell-based, human; conditions: for IC50: Homo sapiens; for retention of activity after washing: up to 4 hours after washing
Protocol: This time course experiment allows determination as to whether the pharmacological effect of the tested compounds persists over time even after the compound is removed from the cell samples.
Human YT cells were grown as described above. Cells were harvested by centrifugation and resuspended in RPMI0.5% heat-inactivated FBS. 3×10^5 cells were seeded in 60 μl per well in a round-bottomed 96 well plate (BD-Falcon, 353077).
Test compounds were dissolved in DMSO and a 1:3 dilution series (9 steps) was prepared. To generate a dose response curve, 30 μl of fourfold concentrated compound in 4% DMSO/RPMI/0.5% FBS were added to each cell sample in the 96 well plate resulting in a final DMSO concentration of 1% DMSO. Cells were incubated for one hour in a humidified incubator (37° C., 5% CO2). After incubation cells were washed twice by centrifugation and replacement of media (RPMI/0.5% FBS), with the exception of the time 0 plate. Washed cells were incubated for 30 min, 1, 2 and 4 hours in a humidified incubator (37° C., 5% CO2) prior to stimulation with IL-2. To each well 30 μl of a fourfold concentrated IL-2 solution (Recombinant human IL-2, Peprotech 200-02; 120 nM solution in RPMI) was added and incubated for 30 minutes at room temperature. Cells were lysed by adding 30 μl of 5× lysis buffer (MSD lysis buffer) and incubated for 10 minutes at 4° C. with gentle shaking.
The effect of compounds on STATS phosphorylation was determined in lysates using the MSD MULTI-SPOT® 96 4-spot phosphor-STAT5a,b whole cell lysatc kit (MesoScale Discovery, K150IGD-3) according to the manufacturer's protocol. Data were analysed in BioAssay using the nonlinear regression for a sigmoidal dose-response with a variable slope and IC50 values were determined.

BTK = molecular target: T3, BTK (Homo sapiens, UniProt Q06187); test: Radiometric protein kinase assay (33PanQinase, ProQinase), BTK; type: biochemical; conditions: read-out: BTK enzyme assay IC50
T3 construct: purchased ProQinase GmbH, Freiburg, Germany
T3 sequence (Q06187 whole entry): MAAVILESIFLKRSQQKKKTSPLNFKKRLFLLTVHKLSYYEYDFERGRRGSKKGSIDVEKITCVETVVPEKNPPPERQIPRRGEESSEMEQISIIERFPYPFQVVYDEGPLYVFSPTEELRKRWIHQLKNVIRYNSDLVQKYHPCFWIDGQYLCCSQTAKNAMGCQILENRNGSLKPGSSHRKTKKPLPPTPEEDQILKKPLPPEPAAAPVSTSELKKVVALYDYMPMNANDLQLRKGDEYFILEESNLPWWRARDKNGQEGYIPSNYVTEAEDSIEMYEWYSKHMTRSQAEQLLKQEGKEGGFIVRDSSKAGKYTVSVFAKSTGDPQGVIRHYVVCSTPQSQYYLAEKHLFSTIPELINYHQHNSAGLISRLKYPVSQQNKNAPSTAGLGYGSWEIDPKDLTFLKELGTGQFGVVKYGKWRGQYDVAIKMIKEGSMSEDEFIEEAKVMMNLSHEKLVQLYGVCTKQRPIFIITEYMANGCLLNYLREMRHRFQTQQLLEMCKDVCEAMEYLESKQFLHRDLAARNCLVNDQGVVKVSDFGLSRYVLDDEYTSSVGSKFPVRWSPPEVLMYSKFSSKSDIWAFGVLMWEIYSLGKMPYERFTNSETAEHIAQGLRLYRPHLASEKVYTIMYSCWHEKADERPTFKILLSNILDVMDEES
Protocol: A radiometric protein kinase assay (^33PanQinase® Activity Assay; ProQinase GmbH, Freiburg, Germany) was used for measuring the kinase activity of the protein kinases BLK, BTK, ITK and JAK3. All kinase assays were performed in 96-well FlashPlates™ from PerkinElmer (Boston, Mass., USA) in a 50 μl reaction volume. The reaction cocktail was pipetted in four steps in the following order: • 20 μl of assay buffer (standard buffer) • 5 μl of ATP solution (in H2O) • 5 μl of test compound (in 10% DMSO) • 10 μl of substrate/10 μl of enzyme solution (premixed)
The reaction cocktails were incubated at 30° C. for 60 minutes. The reaction was stopped with 50 μl of 2% (v/v) H3PO4, plates were aspirated and washed two times with 200 μl 0.9% (w/v) NaCl. Incorporation of ^33Pi was determined with a microplate scintillation counter (Microbeta, Wallac). All assays were performed with a BeckmanCoulter/SAGIAN™ Core System.

[2] = 0.5 h, read-out: pSTAT5 inhibition pIC50, 30 min after washout, IL-2 stimulated YT cells, 30 min after washout (converted)
[3] = 2 h, read-out: pSTAT5 inhibition pIC50, 2 hours after washout, IL-2 stimulated YT cells, 2 hours after washout (converted)
[4] = 4 h, IL-2 stimulated YT cells, 4 hours after washout, read-out: pSTAT5 inhibition pIC50, 4 hours after washout (converted)

SMILES | IC50 (ITK) [µM] | IC50 (BLK) [µM] | IC50 [1, 2] [µM] | IC50 [1, 3] [µM] | IC50 [1, 4] [µM] | retention of activity after washing ([1]; YT cells) | IC50 (BTK) [µM] | activity 30 minutes after the washing of cells ([1]; YT cells, 30 minutes after washing)
C=CC(=O)Nc1cccc(Cn2ncc3cnc(Nc4cnn(C)c4)nc32)c1 [Example 1, N-(3-((6-((1-Methyl-1H-pyrazol-4-yl)amino)-1H-pyrazolo[3,4-d]pyrimidin-1-yl)methyl)phenyl)acrylamide] | 0.086 | 0.02 | 0.2 | 0.0631 | 0.1 | retain activity for up to 4 hours after washing with some drop in activity | 0.02 | –
C=CC(=O)Nc1cc(Cn2ncc3cnc(Nc4cnn(C)c4)nc32)ccc1F [Example 2, […]] | 0.818 | 0.406 | – | – | – | – | 0.323 | –
C#CC(=O)Nc1cccc(Cn2ncc3cnc(Nc4cnn(C)c4)nc32)c1 [Example 3, N-(3-((6-((1-Methyl-1H-pyrazol-4-yl)amino)-1H-pyrazolo[3,4-d]pyrimidin-1-yl)methyl)phenyl)propiolamide] | 0.012 | 0.012 | 0.631 | 0.0794 | 0.126 | retain activity for up to 4 hours after washing with some drop in activity | 0.001 | –
C=CS(=O)(=O)Nc1cccc(Cn2ncc3cnc(Nc4cnn(C)c4)nc32)c1 [Example 4, N-(3-((6-((1-Methyl-1H-pyrazol-4-yl)amino)-1H-pyrazolo[3,4-d]pyrimidin-1-yl)methyl)phenyl)ethenesulfonamide] | – | – | – | – | – | – | 0.02 | –
CC(=O)Nc1cccc(Cn2ncc3cnc(Nc4cnn(C)c4)nc32)c1 [compound 2, N-(3-((6-((1-methyl-1H-pyrazol-4-yl)amino)-1H-pyrazolo[3,4-d]pyrimidin-1-yl)methyl)phenyl)acetamide, reference compound] | – | – | – | – | – | – | 2 | completely lost
